Data published in US6310247A, “7-aryl-6(Z)-heptatrienoic acid retinamides” (Hoffmann-LA Roche Inc., priority 1999, dated 2001).
Where two headings read alike, the source gives them in different places.

How the values were obtained:
[1] = tested on: ZR-75-1 cells; assay: Cell growth inhibition: MTT assay, ZR-75-1 (ER+ breast carcinoma); format: cell-based; conditions: Homo sapiens, read-out: % inhibition of cell growth compared to no drug control
Procedure: ER+ breast carcinoma, human (ZR-75-1) obtained from ATCC (CRL 1500), were grown in Gibco's RPMI 1640 media supplemented with sodium pyruvate, 10% FBS and 13 ng/mL gentamicin. Cells were incubated at 37° C., 4.5% CO2 and 95.5% humidified air.
1. Cell growth inhibition: MTT Assay
The compounds of formula 1 were tested for ability to inhibit cell growth using the standard MTT assay, a tetrazolium-based assay which measures the viability of cells in culture. Cells were harvested upon reaching 70-80% confluency and pelleted. The cells were then resuspended in medium in which FBS was replaced with Hyclone's Charcoal/Dextran stripped FBS, and seeded (2 mL/well) into 6-well plates (Corning) at a density allowing for linear growth over a four day assay period. Compounds of formula 1 (10 mM stock in dimethylsulfoxide (DMSO)) were added 18-24 hours post-seeding. Compound dilutions were prepared in the appropriate growth media and added to the cells for final concentrations of 10, 3.3 and 1 μM in 0.1% DMSO. At 24, 48 and 72 hr. time points, MTT (3-[4,5-dimethylthiazol-2-yl-2,5-diphenyltetrazolium bromide) stock solution (5mg/mL in 1 PBS) was added to the cells plates (625 μL/well) which were then incubated for 2.5 hours. Liquid was aspirated from the wells and 1 mL/well of 95% ethanol was added to solubilize the formazan reaction product. The plates were shaken (Bellco Mini-Orbital Shaker) for 15 minutes. The solubilized formazan was then transferred (50 μls) into a 96-well plate and the optical densities (OD) were measured (Bio-Tek Microplate Reader) at 570 nm and reference wavelength of 660 nm. Percentage of inhibition of cell growth was calculated according to the following formula: [formula]

[2] = tested on: H1299 cells; assay: Apoptosis: cell death detection by ELISA, H1299 (lung large cell carcinoma); format: cell-based; conditions: Homo sapiens, NCI-H1299, read-out: Fold induction of apoptosis compared to no drug control
Procedure: Lung, large cell carcinoma, human (H1299), obtained from ATCC (CRL-5803), were grown in Gibco's Delbecco Minimum Essential media (DMEM), high glucose, supplemented with sodium pyruvate, 10% FBS and 13 ng/mL gentamicin. Cells were incubated at 37° C., 4.5% CO2 and 95.5% humidified air.
(§1) 2. Apoptosis: Cell death detection by ELISA:
(§2) Compounds of formula 1 were tested for the ability to cause apoptosis as follows:
(§3) Cells and media were collected, cells were pelleted, resuspended in 100 μl lysis buffer (50 mM Tris-Cl (pH=8.0), 20 mM EDTA, 1% NP-40e) and incubated 30 minutes at 4° C. to lyse. Cell debris was spun down and an aliquot (30 μl) of the […] was removed for protein determination and stored at -20° C. An additional 280 μl of lysis buffer, was added, mixed thoroughly and spun down at 14,000 RPM for 10 minutes at 4° C. An aliquot was removed (180 μl) and the sample was stored at -20° C. until testing.
A commercially available apoptosis detection kit, obtained from Boehringer Mannheim (Cat. No. 1544-674), was used as per the directions provided with the kit (Cell Death Detection ELISA). However, the protocol was modified in that a 1:40 to 1:100 dilution of sample was prepared, rather than the recommended 1:10 dilution, due to the increase in cell number used to prepare the sample extract and the subsequent increase in ELISA reactivity. The assay measures apoptosis by quantifying the amount of nucleosomal fragmentation from the extracts of cells treated with the test compounds (samples). These nucleosomal fragments, generated by the activation of endonucleases, are a known downstream effector of apoptosis. Antihistone antibodies are used to fix any nucleosomal fragments in the sample to the well of the microtiter plates. The sample is then incubated with anti-DNA antibodies conjugated to peroxidase and subsequently incubated with the peroxidase substrate, ABTS. The resulting colorimetric change is measured spectrophotometrically at 405/490nm.
The total protein content of each sample was determined for the purpose of normalizing the ELISA values to amount of sample loaded. Microplate assay protocol described in the instruction manual, for (Biorad DC Assay, Cat.#500-0116) section 5.2. The protein concentrations were calculated based upon a linear regression curve.
d) ELISA assay calculations
(§4) Relative ELISA O.D. readings are determined by subtracting the ELISA plate background O.D. value. No drug control O.D. value (lysis buffer only) was subtracted from sample O.D. value. A correction coefficient (CC), based on the sample protein concentration compared to no drug control, was determined to correct the sample O.D. following subtraction of the background O.D. (BCS O.D.). The fold increase over no drug control is calculated and normalized to the total protein concentration of the samples by multiplying against the correction coefficient.
To determine the fold increase in ELISA O.D., obtain the following O.D. measurements:
ELISA plate background--lysis buffer only (EPB);
no drug treated control--cell sample treated with DMSO (NDT);
drug treated sample--cell sample treated with a compound of formula 1 (DT) Subtract EPB from NDT (NDT-EPB) and DT (DT-EPB). The fold increase of the treated over the control is then (DT-EPB)/(NDT-EPB).
To determine the total protein concentration of the samples, obtain the total protein concentration in mg/ul calculated using standard linear regression formula (y=mx+b) based on BSA standards. B=ELISA background. Protein concentration (PC)(mg/ml)=(sample absorbance-b)/x.
Correction coefficient (cc) is (NDT)(PC)/(DT)(PC).
Determine fold increase of ELISA (FT) normalized to total PC:
nDT is DT×cc (which is DT O.D. normalized to PC)
nNDT is NDT×cc (which is NDT O.D. normalized to PC)
FI normalized to PC is nDT/nNDT.

[3] = tested on: ER+ and ER- breast carcinoma cells; assay: Induction of apoptosis in ER+ and ER- carcinoma cells (statements in words); format: cell-based, human; conditions: 24-48 h
Procedure: as §1, §2, §3
A commercially available apoptosis detection kit, obtained from Boehringer Mannheim (Cat. No. 1544-674), was used as per the directions provided with the kit (Cell Death Detection ELISA). […] The assay measures apoptosis by quantifying the amount of nucleosomal fragmentation from the extracts of cells treated with the test compounds (samples). […] The resulting colorimetric change is measured spectrophotometrically at 405/490nm.
The total protein content of each sample was determined for the purpose of normalizing the ELISA values to amount of sample loaded. […] The protein concentrations were calculated based upon a linear regression curve. […]
as §4, with “No drug control O.D. value (lysis buffer only) was subtracted from sample O.D. value.” left out, “coefficient. […]” for “coefficient.”
To determine the total protein concentration of the samples, obtain the total protein concentration in mg/ul calculated using standard linear regression formula (y=mx+b) based on BSA standards. […] Protein concentration (PC)(mg/ml)=(sample absorbance-b)/x. […]

Q: Which inhibition at 1 µM ([1]; 24 hours) does the source give for `C/C(=C/C=C/C(C)=C/C(=O)Nc1ccc(O)cc1)c1cc(C(F)(F)F)cc(C(F)(F)F)c1` [N-(4-hydroxyphenyl)-(2E,4E,6Z)-7-[3,5-bis(trifluoromethyl)phenyl]-3,7-dimethyl-2,4,6-heptatrienamide] here?
A: 1%

Q: What about the inhibition at 3.3 µM ([1]; 24 hours) of the same compound?
A: 14%

Q: What about the inhibition at 10 µM ([1]; 24 hours) of the same compound?
A: 21%

Q: And the inhibition at 1 µM ([1]; 48 hours)?
A: 0%

Q: What about the inhibition at 3.3 µM ([1]; 48 hours) of the same compound?
A: 18%

Q: And the inhibition at 10 µM ([1]; 48 hours)?
A: 30%

Q: What about the inhibition at 1 µM ([1]; 72 hours) of the same compound?
A: 13%

Q: What about the inhibition at 3.3 µM ([1]; 72 hours) of the same compound?
A: 56%

Q: And the inhibition at 10 µM ([1]; 72 hours)?
A: 64%

Q: And the fold induction at 1 µM ([2]; 24 hrs)?
A: 1

Q: What about the fold induction at 3.3 µM ([2]; 24 hrs) of the same compound?
A: 3

Q: What about the fold induction at 10 µM ([2]; 24 hrs) of the same compound?
A: 2

Q: What about the fold induction at 1 µM ([2]; 48 hrs) of the same compound?
A: 1

Q: What about the fold induction at 3.3 µM ([2]; 48 hrs) of the same compound?
A: 10

Q: And the fold induction at 10 µM ([2]; 48 hrs)?
A: 12

Q: And the fold induction at 1 µM ([2]; 72 hrs)?
A: 1

Q: What about the fold induction at 3.3 µM ([2]; 72 hrs) of the same compound?
A: 17

Q: What about the fold induction at 10 µM ([2]; 72 hrs) of the same compound?
A: 20

Q: What about the “Induction of apoptosis (in words)” value [3] of the same compound?
A: significant induction of apoptosis
